What was measured:
[1] = target: T1, GABAA2 (human α2β3γ2 GABAA receptor) (Homo sapiens, UniProt P18507+P47869); assay: Two-electrode voltage-clamp in Xenopus oocytes, potentiation of GABA EC10 current, GABAA2; assay type: cell-based; settings: percentage potentiation of GABA EC10 current divided by that of diazepam
T1 construct: expressed in transfected cells; host or cells: Xenopus laevis oocytes injected with capped cRNA
Description: (§1) Presently available GABAA modulator anxiolytics work via interactions at the classical benzodiazepine binding site. To a large degree these anxiolytics lack GABAA receptor subtype-selectivity. The subtype-selective GABAA receptor modulators may offer more advantages. […] Sedation, a side-effect common to all marketed benzodiazepines, is believed to be mediated by interactions at GABAARs containing the α1 subunit. To develop anxiolytics with minimal liabilities due to interactions with other subunits, an electrophysiological assay was developed to screen modulatory effects of various compounds on different GABA subunit combinations heterologously expressed in Xenopus oocytes.
(§2) GABAA receptors were heterologously expressed in Xenopus oocytes by injecting cRNA corresponding to human α1, α2, α3, α5, β2, β3 and γ2 subunits of the GABAA receptor genes. The specific subunit combinations (subtypes) were as follows: α1β2γ2, α2β3γ2, α3β3γ2, and α5β3γ2. The EC10 of GABA was approximated for each cell. Stability of GABA-mediated (EC10) current was established. Modulatory effect of test compound was determined and compared across subtypes. […] Thus, the assay can characterize modulatory effects and determine subtype selectivity of test compounds on major subtypes of GABAA receptors.
(§3) Xenopus laevis frogs (Xenopus I, Kalamazoo, MI) were anesthetized using 0. […] Surgically removed ovarian lobes were teased out in OR2 solution (82 NaCl, 2.5 KCl, 5 HEPES, 1.5 NaH2PO4, 1 MgCl2, 0.1 EDTA, in mM, pH 7.4). The acolytes were deflocculated by incubation in 25 mL OR2 containing 0.2% collagens 1A (SIGMA) two times for about 60 minutes on a platform shaker and stored in Leibovitz's L-15 medium. Acolytes were injected the following day in 0.5× Leibovitz's L-15 medium containing […] gentamycin, 10 units/ml penicillin, and […] streptomycin.
(§4) Capped cRNAs from the linear zed vectors containing human α1, β2 and γ2 subunits of the GABAA receptor genes were mixed in ratio of […]. Acolytes were injected with 25-50 nL of mixed RNA with an appx molar ratio for α1, β2 and γ2 as 1:1:10. Acolyte recordings were done 2-10 days after injection. The same methods apply to subtypes derived from α2β3γ2, α3β3γ2, and α5β3γ2, except for 1:1:1 ratio was used for α, β, and γ subunits.
(§5) All measurements were done in a medium containing ND-96 (96 NaCl, 2 KCl, 1.8 CaCl2.2H2O, 1 MgCl2.6H2O, 5 HEPES, in mM, pH 7.5). Two-electrode voltage-clamp recording was carried out using Opus press amplifier (Axon Instruments, Foster City, Calif.), which allows simultaneous recording from 8 acolytes. Acolytes were impaled with two electrodes of 1-2 MΩ tip resistance when filled with 3M KCl. Recordings were begun when membrane potential became stable at potentials negative to −50-−60 mV. Membrane potential was held at −60 mV. […] The concentration of GABA corresponded to the EC10 value calculated for each acolyte. The modulator pulses started 30 s before the GABA pulse so as to allow preoccupation with the modulator. A set of 3 pulses with just GABA without modulator was given prior to the modulator-containing pulses to define the baseline GABA response. Two acolytes per each experiment were dedicated to observe the effect of diazepam on GABA response to ensure the presence of γ subunit in the GABAA pantomimic complex, which imparts diazepam sensitivity to the complex.
(§6) Current amplitude (i) was measured from baseline to peak using Clamp fit (Axon Inst., Foster City, Calif.). Potentiating was calculated as percent change from the baseline GABA current flux 100×(imod/icontrol)−1) where imod=current mediated by modulator+GABA and icontrol=current mediated by GABA alone. […] Similarly, a value of −50% potentiating means the presence of modulator caused a 50% decrease in the control current.

[2] = target: T2, GABAA1 (human α1β2γ2 GABAA receptor) (Homo sapiens, UniProt P14867+P18507); assay: Two-electrode voltage-clamp in Xenopus oocytes, potentiation of GABA EC10 current, GABAA1; assay type: cell-based; settings: percentage potentiation of GABA EC10 current divided by that of diazepam
T2 construct: expressed in transfected cells; host or cells: Xenopus laevis oocytes injected with capped cRNA
T2 sequence (P14867 28-456): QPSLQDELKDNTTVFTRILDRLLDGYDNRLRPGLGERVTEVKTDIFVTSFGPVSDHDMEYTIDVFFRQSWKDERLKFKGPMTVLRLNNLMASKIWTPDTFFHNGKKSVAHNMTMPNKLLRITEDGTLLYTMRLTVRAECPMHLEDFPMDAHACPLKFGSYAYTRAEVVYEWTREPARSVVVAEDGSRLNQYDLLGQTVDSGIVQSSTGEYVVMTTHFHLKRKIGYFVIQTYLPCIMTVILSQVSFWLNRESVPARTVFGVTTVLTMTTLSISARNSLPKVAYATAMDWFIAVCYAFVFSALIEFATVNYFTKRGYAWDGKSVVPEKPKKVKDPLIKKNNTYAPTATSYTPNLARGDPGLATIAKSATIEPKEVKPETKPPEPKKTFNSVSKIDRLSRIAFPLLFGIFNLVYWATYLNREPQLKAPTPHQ
T2 sequence (P47870 25-512 partner limits assumed): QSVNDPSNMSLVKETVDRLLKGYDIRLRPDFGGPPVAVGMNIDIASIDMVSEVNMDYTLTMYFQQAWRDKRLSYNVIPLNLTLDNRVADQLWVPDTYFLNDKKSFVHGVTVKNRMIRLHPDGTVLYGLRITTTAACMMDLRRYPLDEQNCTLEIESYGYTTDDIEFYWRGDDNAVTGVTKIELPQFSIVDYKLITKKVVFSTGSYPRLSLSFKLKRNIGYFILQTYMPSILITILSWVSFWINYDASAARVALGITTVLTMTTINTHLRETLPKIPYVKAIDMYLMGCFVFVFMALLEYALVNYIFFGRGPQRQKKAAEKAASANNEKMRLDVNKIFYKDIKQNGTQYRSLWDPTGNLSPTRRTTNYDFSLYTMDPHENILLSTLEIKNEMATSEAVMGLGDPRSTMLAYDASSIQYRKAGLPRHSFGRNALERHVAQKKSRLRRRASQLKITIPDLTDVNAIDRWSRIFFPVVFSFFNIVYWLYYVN
T2 sequence (P18507 40-475): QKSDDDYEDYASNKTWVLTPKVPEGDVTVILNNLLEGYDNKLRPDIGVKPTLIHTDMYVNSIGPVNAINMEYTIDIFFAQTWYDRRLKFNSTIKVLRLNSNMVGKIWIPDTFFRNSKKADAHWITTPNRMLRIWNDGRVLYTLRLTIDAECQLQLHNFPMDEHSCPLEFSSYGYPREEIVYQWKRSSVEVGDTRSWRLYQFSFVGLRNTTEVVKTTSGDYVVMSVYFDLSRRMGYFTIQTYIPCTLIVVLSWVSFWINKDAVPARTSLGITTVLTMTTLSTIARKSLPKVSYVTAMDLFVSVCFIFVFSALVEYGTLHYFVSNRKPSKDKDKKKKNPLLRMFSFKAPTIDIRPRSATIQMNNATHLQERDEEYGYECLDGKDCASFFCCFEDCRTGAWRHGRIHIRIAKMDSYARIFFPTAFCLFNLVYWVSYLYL
Description: as §1, §2, §3, §4, §5, §6

[3] = target: T3, GABAA2 receptors (α2, β3, γ2 receptor subunits) (Homo sapiens, UniProt P18507+P47869); assay: biochemical; settings: [3H]-Flunitrazepam ~2 nM, α2β3γ2 Sf9 membranes, 1 hr at 4° C.; read-out: GABAA2 Binding Ki
T3 construct: host or cells: Sf9 cells (membranes)
T3 sequence (P47869 29-451): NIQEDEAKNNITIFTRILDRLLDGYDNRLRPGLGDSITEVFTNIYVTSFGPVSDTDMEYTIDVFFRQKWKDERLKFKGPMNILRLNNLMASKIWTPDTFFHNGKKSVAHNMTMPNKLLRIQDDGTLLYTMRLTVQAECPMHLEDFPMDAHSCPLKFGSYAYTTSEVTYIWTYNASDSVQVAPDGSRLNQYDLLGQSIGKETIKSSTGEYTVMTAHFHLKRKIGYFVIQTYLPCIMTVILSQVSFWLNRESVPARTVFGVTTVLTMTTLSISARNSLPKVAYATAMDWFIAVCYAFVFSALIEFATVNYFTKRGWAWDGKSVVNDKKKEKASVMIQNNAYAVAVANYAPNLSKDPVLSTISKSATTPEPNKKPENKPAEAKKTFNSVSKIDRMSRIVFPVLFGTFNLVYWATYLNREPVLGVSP
T3 sequence (P28472 26-473 partner): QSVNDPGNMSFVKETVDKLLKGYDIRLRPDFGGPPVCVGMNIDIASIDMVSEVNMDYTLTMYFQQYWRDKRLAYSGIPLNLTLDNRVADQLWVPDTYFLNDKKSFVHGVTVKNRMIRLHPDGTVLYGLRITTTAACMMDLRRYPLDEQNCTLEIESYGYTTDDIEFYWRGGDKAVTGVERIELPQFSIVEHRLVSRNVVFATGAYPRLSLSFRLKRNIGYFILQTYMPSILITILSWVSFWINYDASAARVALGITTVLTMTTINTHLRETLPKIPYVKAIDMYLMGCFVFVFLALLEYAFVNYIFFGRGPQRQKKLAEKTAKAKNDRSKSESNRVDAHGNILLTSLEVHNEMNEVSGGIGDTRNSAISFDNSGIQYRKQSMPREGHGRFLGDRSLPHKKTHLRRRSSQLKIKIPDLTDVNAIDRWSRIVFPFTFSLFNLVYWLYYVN
T3 sequence (P18507 40-475): as the sequence (P18507 40-475) above
Experimental: In some embodiments, the binding test was directed to a subtype of GABAA receptors, such as GABAA1 receptors (i.e., those containing the α1 subunit), GABAA2 receptors (i.e., those containing the α2 subunit), GABAA3 receptors (i.e., those containing the α3 subunit) and GABAA5 receptors (i.e., those containing the α5 subunit).
[formula] Method FF GABAA2 Binding Method Reagents
Assay and Wash Buffer: 50 mM Tris-Citrate, 200 mM NaCl, pH 7.8
Compounds at 10 mM in DMSO: Put 75 μl in column 1 of compound plate.
Flumazenil, 10 mM (for NSB)
[^3H]-Flunitrazepam (Cat #NET567): Prepare 10× stock=20 nM, [F} in assay=˜2 nM
1. […] Add 5 ul of 30 uM flumazenil to wells 12 D-E for 50% control wells.
2. Spot 2 μl of compound dilutions into dry plate (Automation Program 3). Manually spot 2 μl 10 mM flumazenil into wells 12 F-H for nonspecific control.
3. Make 1:100 dilution in assay buffer (2 μl into 200 μl) and dispense 25 μl compound into assay plates (Automation Program 4).
4. Dispense 200 μl membranes into assay plate (Automation Program 5).
5. Add 25 μl [^3H]-Flunitrazepam (Automation Program 6). Incubate for 1 hr at 4° C.
6. Collect membranes on a cell harvester onto GF/B filter plates (pre-wet with dH2O and wash 5×400 μl/well, with cold assay buffer. (First 3 washes are considered hot; last two are cold.)
7. Dry plates for 2-3 hours at RT.
8. Add 40 μl Microsecond 40/well (Automation Program 7); seal plates. Count on a Top Count.
Data is analyzed by calculating percent of control, IC50, and Kid in an Lift template. The following formula is used in the templates: […]

T1 sequence (P47869 29-451): as the sequence (P47869 29-451) above
T1 sequence (P28472 26-473 partner): as the sequence (P28472 26-473 partner) above
T1 sequence (P18507 40-475): as the sequence (P18507 40-475) above

SMILES	Relative Potentiation for GABAA2 [1]	Relative Potentiation for GABAA1 [2]	Ki [3] [nM]
CCCNC(=O)c1nnc2c(-c3ccccc3C(F)(F)F)cccc2c1N	0.063	0.12	0.364
CCCNC(=O)c1nnc2c(-c3cnccc3OC)c(Cl)ccc2c1N	0.14	0.15	0.505
CCCNC(=O)c1nnc2c(-c3cccc(OC)c3)cccc2c1N	0.22	0.13	4.34
CCCNC(=O)c1nnc2c(-c3ccc(F)cc3OC)cccc2c1N	0.38	0.12	4.34
CCNC(=O)c1nnc2c(-c3cnccc3OC)cccc2c1N	0.28	−0.02	4.36
CCCNC(=O)c1nnc2c(-c3cc(OC)cc(OC)c3)cccc2c1N	0.57	0.28	5
CCCNC(=O)c1nnc2c(-c3cc(F)ccc3C)cccc2c1N	0.22	0.02	5.56
CCCNC(=O)c1nnc2c(-c3cc(F)cc(F)c3OC)c(F)ccc2c1N	0.14	0.1	5.78
CCCNC(=O)c1nnc2c(-c3ccccc3)c(Cl)ccc2c1N	0.16	0.25	5.82
CCCNC(=O)c1nnc2c(-c3ccc4ncccc4c3)cccc2c1N	0.23	0.1	6.4
CCCNC(=O)c1nnc2c(-c3ccc(OC)c(OC)c3OC)cccc2c1N	0.33	0.47	6.75
CCCNC(=O)c1nnc2c(-c3cn[nH]c3)cccc2c1N	0.1	−0.063	7.38
CCCNC(=O)c1nnc2c(-c3cccc(OC)c3OC)cccc2c1N	0.013	−0.065	7.49
CCCNC(=O)c1nnc2c(-c3cc(F)cc(F)c3)cccc2c1N	0.26	−0.018	8.6
CCCNC(=O)c1nnc2c(-c3ccc(Cl)cc3)c(F)ccc2c1N	0.19	0.02	8.72
C=CCNC(=O)c1nnc2c(-c3cc(OC)ccc3OC)cccc2c1N	0.33	0.0075	8.91
CCCNC(=O)c1nnc2c(-c3cccc(S(C)(=O)=O)c3)cccc2c1N	0.26	0.34	10.4
CCCNC(=O)c1nnc2c(-c3cc(F)ccc3OC)cccc2c1N	0.4	0.026	10.5

SMILES	Relative Potentiation for GABAA2 [1]	Relative Potentiation for GABAA1 [2]	Ki [3] [nM]
CCCNC(=O)c1nnc2c(-c3cccc(F)c3OC)cccc2c1N	0.11	0.11	10.9
CCCNC(=O)c1nnc2c(-c3cc(C)ccc3C)c(Cl)ccc2c1N	0.22	0.24	11.2
CCCNC(=O)c1nnc2c(-c3cccc(Cl)c3)cccc2c1N	0.53	0.18	12.3
CCCNC(=O)c1nnc2c(-c3cnc4ccccc4c3)cccc2c1N	0.11	−0.15	12.3
CCNC(=O)c1nnc2c(-c3cnc(OC)nc3OC)cccc2c1N	0.35	0.005	14.4
CCCNC(=O)c1nnc2c(-c3ccc(OC)cc3)cccc2c1N	0.06	−0.11	15.4
CCCNC(=O)c1nnc2c(-c3ccc(C)c(C)c3)cccc2c1N	0.35	0.23	16.8
CCCNC(=O)c1nnc2c(-c3ccc(OC)c(C)c3)cccc2c1N	0.27	0.21	17.6
CCCNC(=O)c1nnc2c(-c3ccsc3)cccc2c1N	0.038	−0.26	18.6
Nc1c(C(=O)NCC2CC2)nnc2c(-c3ccccc3)cccc12	0.24	0.11	18.6
CCCNC(=O)c1nnc2c(-c3ccccn3)cccc2c1N	−0.032	0.027	19.4
CCCNC(=O)c1nnc2c(-c3cnc(OC)nc3)cccc2c1N	0.11	−0.066	19.5
CCCNC(=O)c1nnc2c(-c3ccc(F)c(F)c3)cccc2c1N	0.12	−0.14	20
CCCNC(=O)c1nnc2c(-c3ccc(OC)c(F)c3)cccc2c1N	0.19	0.03	20.2
CCCNC(=O)c1nnc2c(-c3cnccn3)cccc2c1N	−0.01	−0.067	20.4
CCCNC(=O)c1nnc2c(-c3cc(Cl)cc(Cl)c3)cccc2c1N	0.48	0.28	22
CCCNC(=O)c1nnc2c(-c3cnc(OC)c(F)c3)cccc2c1N	0.14	−0.012	22.1
CCCNC(=O)c1nnc2c(-c3cnc(OC)c(Cl)c3)cccc2c1N	0.04	0.086	25.4

Source: patent publication US7425556B2 (priority 2005, dated 2008)
